Assay results: ChEMBL document CHEMBL3639183, “Anellated pyridine compounds” (2013)

How the values were obtained:
Type in all cases: cell-based
D(3) dopamine receptor = D(3) dopamine receptor (Homo sapiens, UniProt P35462); test: (§1) Radioligand Binding Assay: The ability of the compounds to bind to the 5-HT2A, D3 and D2 receptors was determined using radioligand binding to cloned receptors selectively expressed in HEK-293 EBNA cells.
[1] = molecular target: 5-hydroxytryptamine receptor 2A (Homo sapiens, UniProt P28223); test: as §1
Chain of 5-hydroxytryptamine receptor 2A (P28223 whole entry): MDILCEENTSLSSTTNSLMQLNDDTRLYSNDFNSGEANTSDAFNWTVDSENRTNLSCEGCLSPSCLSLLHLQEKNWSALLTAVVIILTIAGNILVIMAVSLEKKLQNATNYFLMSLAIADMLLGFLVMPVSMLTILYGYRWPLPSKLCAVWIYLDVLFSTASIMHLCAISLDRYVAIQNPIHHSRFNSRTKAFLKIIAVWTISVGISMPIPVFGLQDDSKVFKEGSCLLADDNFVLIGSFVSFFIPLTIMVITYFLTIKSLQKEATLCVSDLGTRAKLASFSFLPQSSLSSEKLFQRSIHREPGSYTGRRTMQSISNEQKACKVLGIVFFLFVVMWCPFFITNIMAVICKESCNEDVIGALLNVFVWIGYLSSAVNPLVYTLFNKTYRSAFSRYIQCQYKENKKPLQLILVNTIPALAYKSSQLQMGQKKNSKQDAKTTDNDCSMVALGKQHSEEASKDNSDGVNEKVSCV

D(2) dopamine receptor = D(2) dopamine receptor (Homo sapiens, UniProt P14416); test: as §1
Chain of D(2) dopamine receptor (P14416 whole entry): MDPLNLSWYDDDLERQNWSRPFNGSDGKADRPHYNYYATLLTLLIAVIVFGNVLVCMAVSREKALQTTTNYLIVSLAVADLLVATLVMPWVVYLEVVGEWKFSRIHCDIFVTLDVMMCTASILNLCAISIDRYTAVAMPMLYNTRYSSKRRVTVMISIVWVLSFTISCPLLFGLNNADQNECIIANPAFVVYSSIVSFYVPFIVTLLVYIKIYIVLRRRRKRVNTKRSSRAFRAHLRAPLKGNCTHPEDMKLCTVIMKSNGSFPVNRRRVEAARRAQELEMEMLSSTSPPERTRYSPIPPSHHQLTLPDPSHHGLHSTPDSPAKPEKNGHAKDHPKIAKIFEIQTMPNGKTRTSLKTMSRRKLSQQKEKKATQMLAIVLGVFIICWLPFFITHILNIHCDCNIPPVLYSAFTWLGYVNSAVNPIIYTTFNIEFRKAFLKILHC

Chain of D(3) dopamine receptor (P35462 whole entry): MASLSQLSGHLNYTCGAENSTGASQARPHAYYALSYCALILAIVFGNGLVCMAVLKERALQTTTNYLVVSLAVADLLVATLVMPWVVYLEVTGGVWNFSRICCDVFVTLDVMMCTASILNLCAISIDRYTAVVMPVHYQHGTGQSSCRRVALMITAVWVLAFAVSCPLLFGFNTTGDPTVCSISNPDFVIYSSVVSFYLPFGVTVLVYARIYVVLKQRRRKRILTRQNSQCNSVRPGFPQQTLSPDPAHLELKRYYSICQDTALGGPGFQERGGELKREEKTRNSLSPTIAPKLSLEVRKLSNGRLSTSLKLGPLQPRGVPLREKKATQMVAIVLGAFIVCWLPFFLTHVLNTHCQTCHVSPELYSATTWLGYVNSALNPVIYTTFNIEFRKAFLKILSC

CC(C)(O)C(=O)N[C@H]1CC[C@H](CCN2CCN(c3nccc4c3CCO4)CC2)CC1
Ki (D(3) dopamine receptor): 195 nM
Ki [1]: 7.82 nM
Ki (D(2) dopamine receptor): 1260 nM
